Patent EP0456204A2, “Use of benzocycloheptathiophenecarboxylic acid derivatives in the treatment of eosinophile accumulation/activation and connected diseases” (SANDOZ LTD., priority 1990, dated 1991)

Key:
[1] = system: beagle dogs; test: 26-week oral tolerability in beagle dogs; format: in vivo; details: up to 200 mg/kg/day P.O for 26 weeks
[2] = Acute toxicity (LD50) in rats; details: rat, in vivo, read-out: LD₅₀
Protocol: (§1) Thus established LD₅₀ values for the COMPOUND D2 in substantially pure form in mice and rats after 14 days p.o. and 7 days i.v. are: in mice, p.o […], i.v. 163 mg/kg; in rats, p.o. 1721 mg/kg, i.v. 50 mg/kg.

[3] = system: asthma exacerbation or attack; test: Clinical trial 1.2: long-term prophylactic efficacy in asthmatic subjects; format: in vivo, asthmatic subjects (human); details: 10 to 800mg/day orally; for frequency of asthma exacerbation or attack: at least 2 up to 6 months and more, compared with alternative, non-prophylactic therapy; for need for concomitant (bronchodilator) therapy: at least 2 up to 6 months, subjects initially dependent on methyl-xanthine or β₂-agonist therapy
Protocol: (§2) Suitable individual oral dosages, e.g. for COMPOUNDS D2 and K1 in substantially pure form, in such clinical trials comprise, e.g. from ca. 10 to 800mg, e.g. from ca. 50 to 250mg/day, for example at dosages of ca. 25, 50, 200 or 400mg/day orally administered 1x or in divided doses 2 to 3x daily, for example in encapsulated form as hereinafter described in EXAMPLE F. Both acute (0 to 1 hour) and long-term (up to 12 hour) change in lung function is determined post-medication by measurement of lung function parameters, e.g. as follows: • a) FVC; FEV 0.5; FEV 1.0; FEV 3.0; • b) FEV 0.5/FVC; FEV 1/FVC; FEV 3/FVC; • c) PEF; FEF 25-75%; FEF 75-85%; FEF 25%; FEF 50%; FEF 75%; FEF 0.2-1.2 • d) Flow expiratory curve and flow inspiratory curve. Tolerance of medication and possible occurrence of side effects are also reported. In addition to monitoring of lung function, blood eosinophil levels are also monitored and the incidence of activated eosinophils and eosinophil secretory proteins determined. In individual studies, subjects are also subjected to lung lavage and the presence of eosinophils and platelets and their respective secretory products determined before and after exposure to allergen. […] Initial dosaging for e.g. COMPOUND D2 or COMPOUND K1 in substantially pure form is of the order of from 10 to 800mg, e.g. from ca. 50 to 250mg/day, for example at dosages of ca. 25, 50, 200 or 400mg/day administered, e.g. orally once or in divided dosages 2 to 3x daily with subsequent reduction in appropriate cases to a maintenance dosage of 10 to 400mg/day orally. (Suitable dosage forms are e.g. as hereinafter described in EXAMPLE F). During the course of the trial subjects are monitored continually and all relevant parameters recorded including lung function, alterations in the incidence of activated eosinophils or the release of eosinophil products into the blood or bronchial fluids and, in particular, frequency and severity of asthma exacerbation or attack. Additional bronchodilator therapy is provided on the occasion of any such attack. […] During the course of the trial, subjects are monitored continually and all relevant parameters are recorded, including basal lung function, frequency of attack with impairment of lung function, requirement for other medication and frequency of absenteeism attributable to disease status. […] In cases where frequent use of alternative medication is recorded at trial entry, reduced need for concomitant medication is also observed as the trial progresses. […] Recorded symptomatology attributable to condition is also found to undergo reversal during treatment. […]

[4] = Acute toxicity (LD50) in mice; details: mouse, in vivo, read-out: LD₅₀
Protocol: as §1

[5] = system: allergic, atopic bronchoconstrictor response; test: Clinical trial 1.1: prophylactic efficacy before allergen challenge in obstructive inflammatory airways disease, e.g. asthma; format: in vivo, subjects (human); details: oral ca. 10 to 800mg/day, 1 to 2 hours or 1 to 7 days prior to allergen challenge; compared with placebo
Protocol: as §2

[6] = system: allergen induced eosinophilia; test: Influence on allergen induced eosinophilia following inhalation of test compound; bronchoalveolar lavage 24 hrs after challenge; format: in vivo, Male guinea-pigs (Dunkin-Hartley); details: inhalation immediately before challenge, 10.0 to 100mg/kg; lavage 24 hrs following challenge
Protocol: EXAMPLE B: INFLUENCE ON ALLERGEN INDUCED EOSINOPHILIA IN THE GUINEA-PIG FOLLOWING INHALATION
Male guinea-pigs (Dunkin-Hartley) of ca. 300-400g are sensitized employing 10µg amounts of ovalbumin (3x) and applying the technique described in Sanjar et al., Br. J. Pharmacol., 99, 679-686 (1990).
Immediately before challenge COMPOUND OF THE INVENTION, for example COMPOUND D2 or COMPOUND K1 each in substantially pure form, is administered to sensitized animals by inhalation. Administration is effected via a nose-cone either in dry powder with delivery from a brush feed micronising jet mill powder aerosol generator, as described in Bernstein et al. "Aerosols: Science, Technology and Industrial Application of Airborne Particles", Extended Abstract, eds. B.Y.H. Liu. et. al., Elsevier Science, New York, 1984 or in solution from a nebulizer. Antigen challenge or exposure is then carried out, again in accordance with the methods described by Sanjar et. al. loc cit. at p. 680 column 1, employing 10µg ovalbumin in 0.01% solution. Broncheolar lavage is performed 24 hrs following challenge, as follows: • 1. Airway lavage Guinea-pigs are killed by an intraperitoneal injection of pentobarbitone 100mg/kg). The trachea is exposed and cannulated. 10ml of Hank's balanced solution is introduced into the lungs and immediately aspirated by gentle compression of the lung tissue. This procedure is repeated five times. Aspiration fluid is pooled at room temperature in Falcon plastic tubes (60ml). Fluid recovered from the six washes normally exceeds 50ml (85%). The cell suspension is centrifuged (200g for 10 minutes); the supernatant is discarded and the cell pellet resuspended in 1ml of Hank's balanced solution. • 2. Total cell counts 10µl of the 1ml cell suspension is added to 190µl or 90µl (when cell count is low) of Turk's stain (Merck, Darmstadt, Germany) and total cell numbers are determined in a Neubauer (brightline) hemocytometer. The incidence of cells in the 1ml suspension is calculated by multiplying the total cells enumerated in a square of 1mm² by the original dilution viz.: No. of cells counted x dilution x […] = no. of cells/ml. • 3. Differential cell counts The cell suspension is diluted in Hank's balanced solution to obtain a cell concentration of 10⁶ cells per ml. 50µl of this cell suspension is placed in the cytospin (Cytospin 2, Shandon Co.) tube and overlaid by 200µl of buffer. The cytospin is used at 600rpm for 8 minutes. Results for groups of animals receiving COMPOUNDS OF THE INVENTION at varying doses are compared with results for control challenged animals receiving no test substance.

[7] = system: pneumoconiosis or severe bronchitis; test: Clinical trial 2: utility in pneumoconiosis/bronchitis; format: in vivo, subjects (human); details: daily oral dosage as under 1.2, in excess of 2 months; for need for concomitant medication: frequent alternative medication at trial entry
Protocol: (§3) Suitable individual oral dosages, e.g. for COMPOUNDS D2 and K1 in substantially pure form, in such clinical trials comprise, e.g. from ca. 10 to 800mg, e.g. from ca. 50 to 250mg/day, for example at dosages of ca. 25, 50, 200 or 400mg/day orally administered 1x or in divided doses 2 to 3x daily, for example in encapsulated form as hereinafter described in EXAMPLE F. Both acute (0 to 1 hour) and long-term (up to 12 hour) change in lung function is determined post-medication by measurement of lung function parameters, e.g. as follows: • a) FVC; FEV 0.5; FEV 1.0; FEV 3.0; • b) FEV 0.5/FVC; FEV 1/FVC; FEV 3/FVC; • c) PEF; FEF 25-75%; FEF 75-85%; FEF 25%; FEF 50%; FEF 75%; FEF 0.2-1.2 • d) Flow expiratory curve and flow inspiratory curve. Tolerance of medication and possible occurrence of side effects are also reported. In addition to monitoring of lung function, blood eosinophil levels are also monitored and the incidence of activated eosinophils and eosinophil secretory proteins determined. In individual studies, subjects are also subjected to lung lavage and the presence of eosinophils and platelets and their respective secretory products determined before and after exposure to allergen. […] Initial dosaging for e.g. COMPOUND D2 or COMPOUND K1 in substantially pure form is of the order of from 10 to 800mg, e.g. from ca. 50 to 250mg/day, for example at dosages of ca. 25, 50, 200 or 400mg/day administered, e.g. orally once or in divided dosages 2 to 3x daily with subsequent reduction in appropriate cases to a maintenance dosage of 10 to 400mg/day orally. (Suitable dosage forms are e.g. as hereinafter described in EXAMPLE F). During the course of the trial subjects are monitored continually and all relevant parameters recorded including lung function, alterations in the incidence of activated eosinophils or the release of eosinophil products into the blood or bronchial fluids and, in particular, frequency and severity of asthma exacerbation or attack. Additional bronchodilator therapy is provided on the occasion of any such attack. […] UTILITY IN PNEUMOCONIOSIS/BRONCHITIS The trial is performed analogously to 1.2 above but with groups of subjects having a history of pneumoconiosis or severe bronchitis, e.g. characterised by events of restricted lung function, for example including difficulty in breathing, wheezing, dyspnea or occasional bronchoconstrictor attack and a record of pneumoconiosis- or bronchitis-related work absenteeism. […] COMPOUND D2 or COMPOUND K1 each in substantially pure form is administered daily at oral dosage rates as set forth under 1.2 above, over periods in excess of 2, preferably in excess of 3, months. During the course of the trial, subjects are monitored continually and all relevant parameters are recorded, including basal lung function, frequency of attack with impairment of lung function, requirement for other medication and frequency of absenteeism attributable to disease status. […] In cases where frequent use of alternative medication is recorded at trial entry, reduced need for concomitant medication is also observed as the trial progresses. Similar results are obtainable employing other COMPOUNDS OF THE INVENTION at the same or equivalent dosage rates. • 3. […] COMPOUND D2 or COMPOUND K1 in substantially pure form is administered orally at a daily dosage rate of from 10 to 400mg, e.g. from cam. 50 to 250mg/day, for example at dosages of ca. 25, 50 or 200mg, e.g. in dosage form as hereinafter described in EXAMPLE F. The trial is continued for a period of up to 2 to 3 months. Blood samples are collected regularly during the course of the trial and assayed for blood-eosinophil count, incidence of activated eosinophils and levels of eosinophil secretory proteins. […] Recorded symptomatology attributable to condition is also found to undergo reversal during treatment. Similar results are obtainable employing other COMPOUNDS OF THE INVENTION at the same or equivalent dosage rates.

[8] = Tolerability in clinical trials; format: in vivo, human; details: oral dosage rates of 50, 200 and 400mg/day
[9] = system: eosinophil accumulation in the airway lumen; test: Suppression of eosinophil accumulation in allergen (ovalbumin) treated, sensitised animals; airway lavage cell counts; format: in vivo, Guinea-pigs (Dunkin-Hartley, male); details: for airway eosinophil accumulation compared with untreated controls: 10.0 - 100mg/kg/day as a solution orally for 6 consecutive days prior to challenge, 1 hour prior and seven hours after challenge, lavage 24 hours after challenge
[10] = system: elevated eosinophil presence in the blood; test: Clinical trial 3: utility in hypereosinophilia and eosinophil-related disorders; format: in vivo, subjects (human); details: orally 10 to 400mg daily, up to 2 to 3 months
Protocol: as §3

[11] = system: beagle dog; test: Pilot toxicological studies in the beagle dog; format: in vivo; details: 150 and 200 mg/kg p.o. in gelatin capsules over 5 weeks and in olive oil from week 6 to week 8 on

Row | Structure (SMILES) | frequency of asthma exacerbation or attack [3] | need for concomitant (bronchodilator) therapy [3] | eosinophilic response [5] | lung function parameters [5] | eosinophil counts as compared with control groups [6] | neutrophil counts as compared with control groups [6] | total cell counts as compared with control groups [6] | basal lung function [7] | frequency of attack and absenteeism [7] | need for concomitant medication [7] | airway eosinophil accumulation compared with untreated controls [9] | blood-eosinophil count [10] | incidence of activated eosinophils and eosinophil secretory protein levels [10] | recorded symptomatology attributable to condition [10] | other results
1 | COC1=Cc2ccccc2C(=CC(=O)O)c2ccsc21 [COMPOUND D2, [10-Methoxy-4H-benzo[4,5]cyclohepta[1,2-b]thiophen-4-ylidene]-acetic acid] | marked reduction | increasingly reduced need | reduction of eosinophilic response | marked improvement | clear reduction | clear reduction | clear reduction | overall improvement | reduced frequency | reduced need | significant reduction | decreased blood-eosinophil count | decreased incidence | reversal | tolerability [1]: generally well tolerated; LD50 at 168 h ([2]; iv, after 7 days): 50 mg/kg; LD50 at 336 h ([2]; po, after 14 days): 1720 mg/kg; LD50 at 168 h ([4]; iv, after 7 days): 163 mg/kg; LD50 at 336 h ([4]; po, after 14 days): 1620 mg/kg; tolerability / side effects [8]: well tolerated with no significant side effect occurrance; activity in the subject test model (airway eosinophil accumulation) ([9]; dosages of 10 and 50mg/kg/day s.c.): significant activity
2 | COC1=Cc2ccccc2C(=CC(=O)O)c2cc(Cl)sc21 [COMPOUND K1, [2-Chloro-10-methoxy-4H-benzo[4,5]cyclohepta[1,2-b]thiophen-4-ylidene]-acetic acid] |  |  |  |  | clear reduction | clear reduction | clear reduction | overall improvement | reduced frequency | reduced need | significant reduction | decreased blood-eosinophil count | decreased incidence | reversal | pathological effects [11]: no pathological effects
3 | COC1=Cc2ccccc2C(=CC(=O)O)c2cc(Cl)sc21 [COMPOUND K2, [2-Chloro-10-methoxy-4H-benzo[4,5]cyclohepta[1,2-b]thiophen-4-ylidene]-acetic acid] | marked reduction | increasingly reduced need | reduction of eosinophilic response | marked improvement |  |  |  |  |  |  |  |  |  |  | 
